Laboratory results taken from patent publication US6114517A, “Methods of modulating tumor necrosis factor α-induced expression of cell adhesion molecules” (Isis Pharmaceuticals Inc., priority 1998, dated 2000).

Experiments:
Type in all cases: cell-based, human
[1] = tested on: c-raf protein; assay: c-raf protein levels by Western blot in HMVEC
Protocol: For determination of protein levels by Western blot, cellular extracts were prepared using […] of RIPA extraction buffer per 100-mm dish. The protein concentration was quantified by Bradford assay using the BioRad kit (BioRad, Hercules, Calif.). Equal amounts of protein were loaded on 10% or 12% SDS-PAGE mini-gel (Novex, San Diego, Calif.). Once transferred to PVDF membranes (Millipore, Bedford, Mass.), the membranes were then treated for a minimum of 2 hours with specific primary antibody followed by incubation with secondary antibody conjugated to HRP. The results were visualized by Enhanced Chemiluminescent (ECL) detection (New England BioLab, Beverly, Mass.). In some experiments, the blots were stripped in stripping buffer (2% SDS, 12.5 mM Tris, pH 6.8) for 30 minutes at 50° C. After extensive washing, the blots were blocked and blotted with different primary antibody.
ISIS 12854 (SEQ ID NO. 2) is a 2'-O-methoxyethyl mixed backbone chimeric antisense oligonucleotide designed to hybridize with 3'-untranslated sequences contained within human c-raf mRNA. To determine whether this antisense oligonucleotide is effective as a c-raf inhibitor in endothelial cells, human dermal microvascular cells (HMVEC) were treated with ISIS 12854 (SEQ ID NO. 2) as described in Example 2. C-raf mRNA and protein expression was examined by northern and Western blot analysis. The c-raf cDNA probe was generated from the plasmid, p627 (American Type Culture Collection, Manassas, Va.; catalog #41050), following the supplied instructions. The c-raf antibody was obtained from Transduction Laboratories, Inc. (Lexington, Ky.).

[2] = tested on: ERK; assay: TNF-α-stimulated ERK activity, in vitro kinase assay on extracts of treated cells; conditions: 48 hours recovery, TNF-α 5 or 15 minutes
Protocol: (§1) To examine the effect of the c-raf antisense oligonucleotide (ISIS 12854, SEQ ID NO. 2) on ERK, JNK, and p38 MAPK activities stimulated by TNF-α, in vitro kinase assays were performed on extracts derived from cells treated with ISIS 12854 (SEQ ID NO. 2). Cells were treated with oligonucleotides and induced with cytokines. At the indicated time, cells were lysed on ice and debris was removed by centrifugation. Protein concentration was measured by Bradford assay. Lysate containing equal amounts of protein were incubated with primary antibody-agarose conjugates (ERK and p38 assay; Santa Cruz Biotechnology, Santa Cruz, Calif.), or with JNK1-specific or JNK2-specific antibodies (JNK assay; Upstate Biotechnology, Lake Placid, N.Y.), overnight at 4° C.
(§2) For isoform-specific JNK assays, anti-rabbit IgG conjugated with agarose beads was added to cell extracts following JNK antibody treatment and wash steps and incubated for 2 hours at 4° C. […]
(§3) Cells were treated with the c-raf antisense compound, ISIS 12854 (SEQ ID NO. 2), allowed to recover for 48 hours, at which time TNF-α was added for 5 or 15 minutes prior to cell lysis and initiation of the kinase assays. […] Suitable substrates and ATP were added to the immunoprecipitated kinase complexes and the reaction mixes were analyzed on SDS-PAGE. […]

[3] = tested on: JNK; assay: TNF-α-stimulated JNK activity, in vitro kinase assay on extracts of treated cells; conditions: 48 hours recovery, TNF-α 5 or 15 minutes
Protocol: as §1, §2, §3

[4] = tested on: p38 MAPK; assay: TNF-α-stimulated p38 MAPK activity, in vitro kinase assay on extracts of treated cells; conditions: 48 hours recovery, TNF-α 5 or 15 minutes
Protocol: as §1, §2, §3

In the case of “ToCoCoCoGoCsCsTsGsTsGsAsCsAsToGoCoAoToT [ISIS 12854]”, the “time of maximal reduction of c-raf protein levels” value ([1]; after treatment with 150 nM oligonucleotide) is reported as 48 h, the “time at which reduction in c-raf protein expression was first detectable” value ([1]; after treatment, Western blot) is reported as 24 h and the “persistence of reduction of c-raf protein levels” value ([1]; following initial treatment) is reported as “up to 72 hour”. The ERK activity [2] was “reduced”, the JNK activity [3] was “inhibited” and the “Activation of p38 MAPK” value [4] was “not affected”.
